The record followed here is patent US6482609B1, “Isolated human EDG-4 receptor and polynucletide encoding said receptor” (priority 1997, dated 2002).

SMILES strings stand for the structures. “Also recorded” adds a separate entry of the source.

Data set [1] addresses T1, EDG-1 (Homo sapiens, UniProt P21453). Briefly: Calcium microfluorimetry (fura-2) in 293-EBNA cells, EDG-1. The class given is cell-based. Particulars: 2 and 10 μM, preliminary data. The protocol:
(§1) Transfections were carried out with EDG receptors in 293-EBNA cells as described above, except that no reporter gene vector was included in the DNA mix. Two days after transfection, cells were harvested by trypsinization and plated at a density of 200,000 cells onto poly-D-lysine-coated coverslips in 100 μl of medium containing 0.5% FBS. After briefly allowing cell attachment to take place, 2 ml of medium without FBS was added and the cells were incubated overnight. The next day, cells were loaded with 5 μM fura-2 AM ester (Molecular Probes) for 60 min at RT, then washed and used for calcium microfluorimetry. […] Treatments were applied using a gravity-fed perfusion apparatus. Fluorescence emission was continuously monitored and recorded with PTI 2.060a software and analyzed with Sigma Plot software. Intracellular calcium concentrations were calculated by interpolation on a ratiometric fluorescence curve generated from fura-2 fluorescence in a calcium dilution series.

Data set [2] addresses T1, EDG-1. Briefly: NF-κB luciferase reporter in 293-EBNA cells, EDG-1. The class given is cell-based. Set-up: expressed in transfected cells; host or cells: 293-EBNA. Particulars: 3 μM, 6 hours. The protocol:
3) 30 μl Lipofectamine Reagent (Lipofectamine Plus Kit) was diluted in 750 μl DMEM/F12. The diluted Lipofectamine was then combined with the DNA/Plus mixture and incubated at room temperature for 15 min. […] 2) Transfected cells were harvested by trypsinization and 50,000 cells per well were plated in 96-well Blackview plates coated with poly D-lysine (Becton Dickinson Labware, Cat. 40640). No cells were plated in the outside wells of the 96-well plate. […] 1) Media was removed and cells treated with compounds diluted in DMEM/F12 media. […] 2) The cells were treated for 6 hours. 3) Luciferase assay was performed.

The next data set has as its system EDG-7. Briefly: NF-κB reporter, EDG-7. The class given is cell-based.
Data set [3] relates to HL-60 cells. Briefly: Cytotoxicity (cell viability) in HL-60 cells. The class given is cell-based, human.
Description: For this purpose, an experiment was conducted to measure cytotoxicity in parallel with IL-8 response. […] Therefore, IL-8 production had to be robust to be observed at 6 hr, while even slight or delayed toxicity would be seen as a loss of viability at 24 hr.
Data set [4] relates to HL-60 cells. Briefly: IL-8 ELISA on HL-60 cells. Format: cell-based, human. As to conditions: 1, 6 or 24 hr, S1P or LPA up to 3 μM, TNF-α 10 ng/ml. The protocol:
Procedure for HL-60 Cells:
Cells: HL-60 (promyelocytic, human) suspension cells
Media: RPMI 1640 medium with 2 mM L-glutamine adjusted to contain 4.5 g/L glucose, 10 mM HEPES, and 1.0 mM sodium pyruvate+10% FBS
1) Cells were plated at a density of 0.25×10^6 cells/ml.
2) Cell pellcts were resuspended in 0.5% FBS media at a density of approximately 1×10^6 cells/ml.
1) Made up all required solutions in 0.5% FBS media (control).
2) 1.4 ml appropriate treatments were added to each well of a 6-well plate.
5) 100 μl cell suspension was added to each well.
7) After the specified time cell supematants were collected into 1.5 ml eppendorf tubes, spun down at 14000 rpm for 5 minutes and stored at −20° C.
D. Refer to Procedure #1 For HeLa Cells (D).

A further data set addresses T2, human EDG-3 (Homo sapiens, UniProt Q99500).
T2 construct: expressed in transfected cells; host or cells: 293-EBNA
Briefly: Calcium microfluorimetry in 293-EBNA cells, EDG-3. Format: cell-based. As to conditions: EDG-3 transfected cells; 2 μM S1P. Here is the method:
as §1

Data set [5] concerns the target T1, EDG-1. Briefly: SRE luciferase reporter (2XSREtk-p4Luc-zeo) in 293-EBNA cells, EDG-1. Set-up: expressed in transfected cells; host or cells: 293-EBNA. Format: cell-based. Particulars: 3 μM, 6 hours.
The test system of a further data set is HeLa cells. Put plainly: Cytotoxicity (viable cell count) in HeLa cells. The class given is cell-based, human. Particulars: S1P concentrations up to 10 μM. The text has this:
Follow Procedure #2 For HeLa Cells with the following exceptions: […]

The next data set deals with rat edg4 (Rattus norvegicus, UniProt P47752). Put plainly: SRE luciferase reporter in 293-EBNA cells, rat EDG-4. The class given is cell-based. Set-up: expressed in transfected cells; host or cells: 293-EBNA. As to conditions: 3 μM SPC, 6 hr. Here is the method:
Transfection was accomplished using the Lipofectamine Plus kit (Life Technologies, Cat. 10964-013), using the manufacturer's recommended conditions. Optimal SRE induction was seen when cells were seeded so as to become 100% confluent at the time of treatment, 72-96 hr after transfection.
For orientation: A reporter such as luciferase makes a cellular process visible.

T1 sequence (P21453 whole entry, the tested form may be a part): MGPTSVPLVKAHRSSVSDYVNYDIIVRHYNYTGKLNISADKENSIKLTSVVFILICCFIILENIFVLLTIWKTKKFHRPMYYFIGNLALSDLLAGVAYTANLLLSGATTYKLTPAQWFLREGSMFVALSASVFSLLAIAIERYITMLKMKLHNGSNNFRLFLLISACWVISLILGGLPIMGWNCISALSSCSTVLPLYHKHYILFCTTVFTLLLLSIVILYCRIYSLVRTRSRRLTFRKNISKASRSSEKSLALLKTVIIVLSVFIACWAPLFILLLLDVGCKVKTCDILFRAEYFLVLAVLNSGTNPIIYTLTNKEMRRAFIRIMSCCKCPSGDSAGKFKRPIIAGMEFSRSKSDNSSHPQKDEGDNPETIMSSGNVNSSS
Sequence of rat edg4 (P47752 whole entry): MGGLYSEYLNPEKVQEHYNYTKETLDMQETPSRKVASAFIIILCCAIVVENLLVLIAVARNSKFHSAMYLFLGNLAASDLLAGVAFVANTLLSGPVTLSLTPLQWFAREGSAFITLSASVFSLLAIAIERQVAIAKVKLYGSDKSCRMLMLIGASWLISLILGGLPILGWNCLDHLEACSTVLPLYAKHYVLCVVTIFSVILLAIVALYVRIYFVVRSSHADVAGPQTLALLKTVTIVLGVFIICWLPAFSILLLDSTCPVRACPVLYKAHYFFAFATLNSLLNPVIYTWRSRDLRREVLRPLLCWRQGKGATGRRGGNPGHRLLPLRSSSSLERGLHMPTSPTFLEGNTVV
T2 sequence (Q99500 whole entry): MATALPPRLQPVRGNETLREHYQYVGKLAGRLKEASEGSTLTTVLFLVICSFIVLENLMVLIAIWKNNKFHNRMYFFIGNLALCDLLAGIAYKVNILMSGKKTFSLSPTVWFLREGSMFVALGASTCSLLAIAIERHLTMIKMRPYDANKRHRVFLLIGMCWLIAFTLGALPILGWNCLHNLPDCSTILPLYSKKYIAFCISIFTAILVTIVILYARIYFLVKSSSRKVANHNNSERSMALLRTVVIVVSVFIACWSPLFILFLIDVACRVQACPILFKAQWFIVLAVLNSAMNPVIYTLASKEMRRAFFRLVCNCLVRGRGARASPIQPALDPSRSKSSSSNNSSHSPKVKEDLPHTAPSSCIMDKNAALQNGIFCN

Consider `CCCCCCCCCCCCC/C=C/[C@@H](O)[C@@H](N)COP(=O)(O)O` [S1P, sphingosine-1-phosphate], for which the Qualitative calcium response entry on EDG-1 [1] is on record as “None within 20 min”. In addition, the “Luciferase activity (NF-κB reporter)” value on EDG-1 [2] is listed as “no increase in luciferase activity”. The NF-κB reporter signaling entry with EDG-7 is recorded as “fail to signal through NF-κB reporters”. Moreover, in the data set with HL-60 cells [3], the “Concentration at which toxicity begins” value was 10 µM. Besides, the IL-8 release entry with HL-60 cells [4] was “no such release; also recorded: fail to produce IL-8”. Moreover, the “Increase in intracellular calcium” value at human EDG-3 was 300 nM. For the same compound, at EDG-1 [5], the “Increase in luciferase activity (SRE reporter)” value was 8 fold. Moreover, the “Cell viability 24 hr after treatment” value in the data set with HeLa cells is reported as “No loss of HeLa viability”.
As for `CCCCCCCCCCCCC/C=C/[C@@H](O)[C@@H](N)COP(=O)([O-])OCC[N+](C)(C)C` [SPC, sphingosylphosphorylcholine], the “Induction of luciferase activity (SRE reporter)” value on rat edg4 was 35.6 fold.
